Where a SMILES comes first, the peptide text is derived from it. The star is where a group is joined. Cbz = O=C(OCc1ccccc1)*
Key:
Assay type in all cases: cell-based
AvBD9 [1] = assay: AvBD9 gene expression in chicken HD11 macrophage cells (real-time RT-PCR); settings: for Induction of AvBD9 gene expression: compound alone, different concentrations; for Effect of pathway inhibitor on lactose-induced AvBD9 expression: 1 h inhibitor pretreatment, then 0.2 M lactose 24 h; for Efficacy of AvBD9 induction compared with butyrate: 24 h stimulation; for Induction of AvBD9 gene expression by sugars: 0.2 M, up to 48 h; for Synergy with butyrate in AvBD9 induction: 2 mM butyrate with 0.2 M sugar, 12 h
Procedure: (§1) Chicken HD11 macrophage cell line was obtained from USDA-Agricultural Research Services (ARS), and chicken HTC macrophage cell line was secured from USDA-ARS. Both HD11 and HTC macrophage cells were propagated in RPMI 1640 containing 10% fetal bovine serum (FBS), 100 μg/ml streptomycin, and 100 U/ml penicillin. Peripheral blood mononuclear cells (PBMCs) were isolated from EDTA-anticoagulated chicken blood by gradient centrifugation with Histopaque 1077 (Sigma) following manufacturer's instructions. Briefly, chicken blood was overlaid onto Histopaque 1077 (Sigma) at 1:1 ratio, and centrifuged at 400×g for 30 min. Interphase containing PBMCs was aspirated and washed 3 times with PBS at 250×g for 10 min. Cell pellet was re-suspended with RPMI 1640, supplemented with 10% FBS, 100 μg/ml streptomycin, 100 U/ml penicillin, and 20 mM HEPES. After being seeded overnight at 2×10^6/well in 6-well tissue culture plates, cells were treated with different concentrations of chemicals. For signaling studies, cells were pre-treated with different signaling agonists or inhibitors for 1 h, followed by stimulation with sodium butyrate or its structural analogs for another 24 h. Cells were then lysed in RNAzol (Molecular Research Center, Cincinnati, Ohio) for RNA extraction.
(§2) Total RNA was extracted from chicken cells and tissues using RNAzol RT (Molecular Research Center) and quantitated using Nanodrop 1000 (Nanodrop Products, Wilmington, Del.). RNA (0.3 μg) was reverse transcribed in 4-μl reactions using Maxima First Strand cDNA Synthesis Kit (Thermo Fisher Scientific, Pittsburgh, Pa.) according to the manufacturer's instructions. The cDNA was then diluted 10 times with RNase-free water prior to real-time PCR analysis of AvBD9 and GAPDH as were described previously. The primers used for AvBD9 primers were […] (SEQ ID NO: 1, forward) and […] (SEQ ID NO: 2, reverse), whereas the primers for chicken glyceraldehyde-3-phosphate dehydrogenase (GAPDH) were […] (SEQ ID NO: 3, forward) and […] (SEQ ID NO: 4, reverse). QuantiTect SYBR Green PCR Kit (Qiagen, Valencia, Calif.) was used in 10 μl reactions with 4 and 1 μl of diluted cDNA for AvBD9 and GAPDH, respectively. Real-time PCR was performed with an initial activation at 95° C. for 10 min, followed by 40 cycles at 94° C. for 15 sec, 55° C. for 20 sec and 72° C. for 30 sec. Melting curve analysis was carried out to confirm the specificity of PCR amplification. Relative fold change in the AvBD9 gene expression was calculated using the ΔΔCt method normalized against the GAPDH levels.

AvBD9 [2] = assay: AvBD9 gene expression in chicken peripheral blood mononuclear cells (PBMCs) (real-time RT-PCR); settings: for Effect of pathway inhibitor on butyrate-induced AvBD9 expression: 1 h inhibitor pretreatment, then 2 mM sodium butyrate 24 h; for Effect on AvBD9 induction, compound alone: without butyrate; for AvBD9 gene expression, maximum fold increase, compound alone: 50 to 250 μM, dose-dependent
Procedure: as §1, §2

AvBD9 [3] = assay: as above; settings: 1 h inhibitor pretreatment, then 10 μM quercetin 24 h
AvBD9 [4] = assay: AvBD9 gene expression in chicken jejunal explants (real-time RT-PCR); settings: 2 mM butyrate and/or 0.1 M lactose, 24 h
Procedure: A segment of chicken jejunum was harvested from 1- to 2-week-old broiler chickens, washed thoroughly in cold PBS containing 100 μg/ml of gentamicin, 100 U/ml penicillin, and 100 μg/ml streptomycin, and then cut into a series of 0.5-cm-long segments. Jejunal segments were placed individually in 6-well plates and cultured in 4 ml RPMI 1640 containing 10% FBS, 20 mM HEPES, 100 U/ml penicillin, 100 μg/ml streptomycin, and 100 μg/ml gentamicin. […] Jejunal segments were homogenized in RNAzol RT for RNA extraction.
(§3) The cDNA was then diluted 10 times with RNase-free water prior to real-time PCR analysis of AvBD9 and GAPDH as were described previously. The primers used for AvBD9 primers were […] (SEQ ID NO: 1, forward) and […] (SEQ ID NO: 2, reverse), whereas the primers for chicken glyceraldehyde-3-phosphate dehydrogenase (GAPDH) were […] (SEQ ID NO: 3, forward) and […] (SEQ ID NO: 4, reverse). QuantiTect SYBR Green PCR Kit (Qiagen, Valencia, Calif.) was used in 10 μl reactions with 4 and 1 μl of diluted cDNA for AvBD9 and GAPDH, respectively.

acetyl-histone 4 (Ac-H4) = assay: Histone 4 acetylation in chicken HD11 cells (immunoblotting, Ac-H4); settings: 2 mM butyrate and/or 0.2 M lactose, 6 h
Procedure: After stimulation with various compounds, chicken HD11 cells were washed with PBS and lysed in the RIPA lysis buffer (Santa Cruz Biotechnology, Dallas, Tex.). Protein concentration was measured by the Bradford Assay (Bio-Rad, Hercules, Calif.). For the determination of histone 4 acetylation levels, 20 μg of proteins was separated by 12.5% SDS-PAGE gel and then transferred to a PVDF membrane. After overnight blocking in the blocking buffer at 4° C., the membrane was incubated with a primary rabbit antibody against acetyl-histone 4 (Ac-H4) (Cell Signaling, #8647) in the blocking buffer for 1 h at room temperature. After three washes, the membrane was incubated with an alkaline phosphatase-conjugated goat anti-rabbit IgG antibody (Sigma-Aldrich, St. Louis, Mo.) for 45 min at room temperature. Another membrane was prepared in parallel, but incubated with a rabbit antibody against β-Actin (#A2103) to reveal a similar amount of protein loading. The signaling was visualized by incubation with the ECL reagent (Santa Cruz Biotechnology).

AvBD9 [5] = assay: AvBD9 gene expression in chicken HTC macrophage cells (real-time RT-PCR)
Procedure: For signaling studies, cells were pre-treated with different signaling agonists or inhibitors for 1 h, followed by stimulation with sodium butyrate or its structural analogs for another 24 h.
as §3

## CN(C)c1ccc(C(=O)NCCCCCC(=O)NO)cc1 [CAY10398, reference compound]
AvBD9 [1]; 24 h
  Induction of AvBD9 gene expression: dose-dependent stimulation

## C[C@H]1O[C@@H](n2cnc3c(N)ncnc32)C[C@@H]1O [DDA, 2′-5′-dideoxyadenosine]
AvBD9 [2]
  Effect of pathway inhibitor on butyrate-induced AvBD9 expression: strikingly strong, dose-dependent increase

## CC(C)C[C@@H](C=O)NC(=O)[C@H](CC(C)C)NC(=O)[C@H](CC(C)C)NC(=O)OCc1ccccc1 [MG132] (Cbz-Leu-Leu-Leu-aldehyde)
AvBD9 [2]
  Effect of pathway inhibitor on butyrate-induced AvBD9 expression: nearly complete abolishment

## COc1cccc(-c2cc(=O)c3ccccc3o2)c1N [PD98059, reference compound]
AvBD9 [2]
  Effect of pathway inhibitor on butyrate-induced AvBD9 expression: strong synergistic AvBD9 induction
AvBD9 [1]
  Effect of pathway inhibitor on lactose-induced AvBD9 expression: synergized substantially

## S=C(S)N1CCCC1 [PDTC]
AvBD9 [3]
  Effect of pathway inhibitor on quercetin-mediated AvBD9 expression: did not show much effect

## Nc1ccc2ncnc(NCCc3ccc(Oc4ccccc4)cc3)c2c1 [QNZ, reference compound]
AvBD9 [1]
  Effect of pathway inhibitor on lactose-induced AvBD9 expression: no influence

## O=C(CCCCCCC(=O)Nc1ccccc1)NO [SAHA, suberoylanilide hydroxamic acid, reference compound]
AvBD9 [1]; 24 h
  Induction of AvBD9 gene expression: dose-dependent stimulation

## C[S+]([O-])c1ccc(-c2nc(-c3ccncc3)c(-c3ccc(F)cc3)[nH]2)cc1 (centres unmarked) [SB203580, reference compound]
AvBD9 [2]
  Effect of pathway inhibitor on butyrate-induced AvBD9 expression: substantial, but not complete reduction
AvBD9 [1]
  Effect of pathway inhibitor on lactose-induced AvBD9 expression: no influence

## Nc1ncnc2c1ncn2C1CCCO1 (centres unmarked) [SQ22536, reference compound]
AvBD9 [1]
  Effect of pathway inhibitor on lactose-induced AvBD9 expression: no influence

## CCCCCCCCCCCCCCCc1cccc(O)c1C(=O)O [anacardic acid]
AvBD9 [2]
  Effect on AvBD9 induction, compound alone: modest effect

## CCCC(=O)OCc1ccccc1 [benzyl butyrate, Benzyl butyrate]
AvBD9 [1]
  Efficacy of AvBD9 induction compared with butyrate: comparable efficacy to butyrate
AvBD9 [1]; 24 h
  Induction of AvBD9 gene expression: dose-dependently induced

## CCCC(=O)[O-].[Na+] [butyrate, Sodium butyrate]
AvBD9 [4]
  AvBD9 induction, fold: 100 fold
acetyl-histone 4 (Ac-H4)
  Histone 4 acetylation: minimum histone 4 acetylation
AvBD9 [1]; 2 mM butyrate alone, 24 h
  AvBD9 induction, peak fold: approximately 1,750 fold

## CCCC(=O)Nc1ncnc2c1ncn2[C@@H]1O[C@@H]2COP(=O)(O)O[C@H]2[C@H]1OC(=O)CCC [dibutyryl cAMP, reference compound]
AvBD9 [1]
  Efficacy of AvBD9 induction compared with butyrate: comparable efficacy to butyrate
AvBD9 [1]; 24 h
  Induction of AvBD9 gene expression: dose-dependently induced

## O=C(CO)[C@@H](O)[C@H](O)[C@H](O)CO [fructose]
AvBD9 [1]
  Induction of AvBD9 gene expression by sugars: stimulated AvBD9 gene expression in a time-dependent manner

## O=C[C@H](O)[C@@H](O)[C@@H](O)[C@H](O)CO [galactose]
AvBD9 [1]
  Synergy with butyrate in AvBD9 induction: clear synergy
  Induction of AvBD9 gene expression by sugars: stimulated AvBD9 gene expression in a time-dependent manner

## C=C(C)[C@@H](CC=C(C)C)C[C@@]12C[C@@H](CC=C(C)C)C(C)(C)[C@@](CC=C(C)C)(C(=O)C(C(=O)c3ccc(O)c(O)c3)=C1O)C2=O [garcinol]
AvBD9 [2]; garcinol without butyrate
  AvBD9 induction, peak fold increase, compound alone: approximately 7 fold

## CCCC(=O)OCC(COC(=O)CCC)OC(=O)CCC [glyceryl tributyrate, Glyceryl tributyrate]
AvBD9 [1]
  Efficacy of AvBD9 induction compared with butyrate: comparable efficacy to butyrate
AvBD9 [1]; 24 h
  Induction of AvBD9 gene expression: dose-dependently induced

## O=C(O)CCc1ccccc1 [hydrocinnamic acid, Hydrocinnamic acid]
AvBD9 [1]; 24 h
  Induction of AvBD9 gene expression: dose-dependently induced

## OC[C@H]1O[C@@H](O[C@H]2[C@H](O)[C@@H](O)C(O)O[C@@H]2CO)[C@H](O)[C@@H](O)[C@H]1O (some centres unmarked) [lactose]
AvBD9 [4]
  AvBD9 induction, fold: 15 fold
acetyl-histone 4 (Ac-H4)
  Histone 4 acetylation: no impact
AvBD9 [1]; 0.2 M lactose alone, 6 h
  AvBD9 induction, maximum fold: 350 fold
AvBD9 [1]
  Induction of AvBD9 gene expression by sugars: stimulated AvBD9 gene expression in a time-dependent manner

## OC[C@@H](O)[C@@H](O)[C@H](O)[C@H](O)CO [mannitol]
AvBD9 [1]
  Synergy with butyrate in AvBD9 induction: comparably synergy

## O=C(O)c1cccnc1Nc1cccc(C(F)(F)F)c1 [niflumic acid]
AvBD9 [2]
  AvBD9 gene expression, maximum fold increase, compound alone: ~14,000 fold

## CS(=O)(=O)Nc1ccc([N+](=O)[O-])cc1Oc1ccccc1 [nimesulide]
AvBD9 [2]
  AvBD9 gene expression, maximum fold increase, compound alone: approximately 70 fold

## O=c1c(O)c(-c2ccc(O)c(O)c2)oc2cc(O)cc(O)c12 [quercetin]
AvBD9 [2]; 40 μM quercetin alone, 24 h
  AvBD9 expression, fold increase: approximately 6,500 fold
AvBD9 [2]; quercetin alone, 24 h
  Induction of AvBD9 (dose dependence): dose-dependently induced
AvBD9 [5]; 40 μM quercetin
  Reduction of AvBD9 induction at 48 h relative to 24 h: 210 fold
AvBD9 [5]; 40 μM quercetin, 24 h
  AvBD9 expression, fold increase at peak: approximately 500 fold
AvBD9 [5]; quercetin alone, 24 h
  Concentration giving peak AvBD9 response: 40 µM
  Induction of AvBD9 gene expression (dose dependence): dose-dependent induction

## Oc1ccc(C=Cc2cc(O)cc(O)c2)cc1 [resveratrol]
AvBD9 [2]
  Effect on AvBD9 induction, compound alone: modest effect

## CCCC(CCC)C(=O)[O-].[Na+] [sodium valproate, reference compound]
AvBD9 [1]; 24 h
  Induction of AvBD9 gene expression: dose-dependent stimulation

## CCCC(=O)OC/C=C/c1ccccc1 [trans-cinnamyl butyrate]
AvBD9 [1]; 24 h
  Induction of AvBD9 gene expression: dose-dependently induced

## OC[C@H]1O[C@H](O[C@H]2O[C@H](CO)[C@@H](O)[C@H](O)[C@H]2O)[C@H](O)[C@@H](O)[C@@H]1O [trehalose]
AvBD9 [1]
  Synergy with butyrate in AvBD9 induction: clear synergy

## CC(/C=C/C(=O)NO)=C\[C@@H](C)C(=O)c1ccc(N(C)C)cc1 [trichistatin A, reference compound]
AvBD9 [1]; 24 h
  Induction of AvBD9 gene expression: dose-dependent stimulation
